Measurements published in patent US20260130932A1, “NOVEL COMBINATION OF RIFAXIMIN AND CLARITHROMYCIN FOR TREATING MULTIDRUG-RESISTANT MYCOBACTERIUM ABSCESSUS” (priority 2022, published 2026).
Like-named read-outs stand apart in the source and are kept apart here.

Assays:
M. abscessus ATCC 19977 [1] = details: positive control, earlier report; cited from earlier work
M. abscessus strain M422 [2] = experiment: Single-concentration assay with and without clarithromycin (hit validation); format: cell-based, Mycobacterium abscessus
Description: (§1) For checkerboard synergy assay, 3 M. abscessus strains were used: M. abscessus ATCC 19977, M. abscessus strains M422 and M110, while bactericidal activity determination and the zebrafish study were performed with M. abscessus ATCC 19977. All three strains of M. abscessus harbor the inducible clarithromycin resistance-conferring erm(41) T28 sequevar. M. abscessus strain M422 and M110 were provided by Dr. Jeanette Teo, National University Hospital, Singapore (Chew K L, et al., 2017. J Med Microbiol 66: 1443-1447). M. abscessus ATCC 19977 and M. avium ATCC 700898 were acquired from American Type Culture Collection (ATCC).
(§2) Primary screening was carried out in 96-well flat-bottom Corning Costar cell culture plates at 50 μM compound along with 4 μg/ml of Clr in a starting inoculum of pre-induced M. abscessus cells at OD600 of 0.005 in a final volume of 100 μl. The plates were put in an airtight container with moist paper towels and incubated for 4 d at 30° C. The cultures in the wells were resuspended before OD600 was read in a BioTek Synergy 4 plate reader.
To start the validation process, the top 10 compounds with >90% growth inhibition were chose to perform a single-concentration assay, with and without clarithromycin. Finally, the inventors obtained 7 compounds that potentiated Clr efficacy.

[3] = system: M. abscessus ATCC 19977 (pre-induced); experiment: microbe, parasite or virus in culture; format: cell-based, Mycobacterium abscessus; details: for Percentage of bacterial growth: clarithromycin 0 μg/ml
Description: (§3) The FICI was calculated by summing the FIC of Rfx and the FIC of Clr. FIC of Clr is the MIC of Clr in the presence of Rfx divided by MIC of Clr alone. FIC of Rfx was similarly calculated.
(§4) To characterize the interaction between Clr and Rfx, checkerboard synergy assays were performed on pre-induced Clr-resistant M. abscessus. The fractional inhibitory concentration index (FICI) obtained from the checkerboard assay defines whether the interaction between the two compounds is either synergistic (FICI≤0.5), additive (0.5<FICI≤1.0), indifferent (1.0<FICI≤4.0), or antagonistic (FICI >4.0) (Noel D J, Keevil C W, Wilks S A. 2021. MBio 12).

[4] = system: M. abscessus strain M110 (pre-induced); experiment: microbe, parasite or virus in culture; format: cell-based, Mycobacterium abscessus
Description: as §3, §4

[5] = system: M. abscessus strain M422 (pre-induced); experiment: microbe, parasite or virus in culture; format: cell-based, Mycobacterium abscessus
Description: as §3, §4

[6] = system: M. avium ATCC 700898 (uninduced); experiment: Checkerboard synergy assay; format: cell-based, Mycobacterium avium; details: for MIC90: Mycobacterium avium, ATCC700898
Description: (§5) With Rfx identified as the best potentiator of Clr activity, the interaction between Rfx and Clr was investigated by a checkerboard synergy approach using a broth microdilution method performed in 96-well plates. To provide a classification of the combined antibiotics based on the fractional inhibitory concentration index (FICI), this assay applied the combination of Clr and Rfx in concentrations of 0-64 μg/ml by 2-fold serial dilutions along the abscissa and ordinate, respectively. The FICI was calculated by summing the FIC of Rfx and the FIC of Clr. FIC of Clr is the MIC of Clr in the presence of Rfx divided by MIC of Clr alone. FIC of Rfx was similarly calculated.
As both M. abscessus and M. avium are the main organism groups causing pulmonary NTM (Lim A Y H, et al., 2018. BMC Pulm Med 18 (1):85; Tan Y, et al., 2018. BMC Pulm Med 18 (1): 168), the inventors tested the combination of Clr and Rfx against M. avium in the checkerboard assay as well. With a FICI of 0.563, the interaction between Clr and Rfx was additive in M. avium.

[7] = system: M. abscessus ATCC 19977, M. abscessus strains M422 and M110; experiment: Checkerboard synergy assay, statements on all 3 M. abscessus strains; format: cell-based, Mycobacterium abscessus
Description: as §1, §5, §4

M. abscessus ATCC 19977 [8] = experiment: Zebrafish embryo infection model; format: in vivo, zebrafish (Denio rerio); details: 19.6 μg/ml Rfx alone, immersion for 4 days
Description: To visualize the bacterial infection in the zebrafish (Denio rerio), a fluorescent strain of M. abscessus ATCC 19977 containing pJKD2893:mScarlet was generated. The pJKD2893 plasmid backbone was a kind gift from Professor Timothy Stinear. The gene expressing the fluorescent protein mScarlet was amplified from μMRE135-mScarlet (Addgene #118489, Mitja Remus-Emsermann lab). The amplification product was annealed by Gibson cloning with the pJKD2893 backbone amplified from a sample of pJKD2893. The resulting plasmid, termed pJKD2893:mScarlet, was electroporated into M. abscessus ATCC 19977 at a culture density equivalent to OD600˜20 using a BioRad GenePulser Xcell set at 2.5 kV, 25 uF, and 1,000Ω. […] Colonies carrying the plasmid were identified by their fluorescence. […]
Preparation of M. abscessus Inoculum and Zebrafish Infections Cultures of M. abscessus-pJKD2893:mScarlet in 7H9 media supplemented with 50 μg/ml kanamycin were grown to OD600 of 0.2-0.3 and concentrated to OD600 of 1 in 0.1% PBS-Tween-20. […] The actual CFU in the inoculum was determined a posteriori by injecting into 50 μl 0.1% PBS-Tween-20 and streaking on a plate. […]
Larvae were harvested to assess the bacterial load at 5 d post-infection using a slightly modified version of the Kremer lab method (Bernut et al., Antimicrob Agents Chemother 58: 4054-4063). […] Fluorescent colonies were counted after 5-6 days. […]

M. abscessus strain M422 [9] = experiment: Primary compound screening against pre-induced bacterial cells; format: cell-based, Mycobacterium abscessus; details: 50 μM compound with 4 μg/ml Clr
Description: A total of 2,252 drugs/compounds comprising 1,576 FDA-approved drugs and 676 clinical compounds were purchased from MedChemExpress. The compounds were dissolved in dimethyl sulfoxide (DMSO) to a stock concentration of 10 mM. The Clr resistance in M. abscessus was induced for 3 days under 0.5 μg/ml of Clr before being subjected to compound screening.
as §2
A compound library consisting of 2,252 FDA-approved and clinical-stage drugs was screened against M. abscessus clinical strain M422. Bacteria were exposed to a sub-inhibitory concentration of Clr (0.5 μg/ml) for 3 days to induce Clr resistance. The test drugs were screened at 50 μM in the presence of 4 μg/ml of Clr to maintain the Clr-resistance phenotype.

[10] = Mycobacteroides abscessus, alone, read-out: MIC90 Rfx individually

SMILES: COc1nc2ccc(Br)cc2cc1[C@@H](c1ccccc1)[C@@](O)(CCN(C)C)c1cccc2ccccc12 [Bedaquiline]
- efficacy against M. abscessus in zebrafish embryos (M. abscessus ATCC 19977 [1]): demonstrated efficacy

SMILES: CO[C@H]1/C=C/O[C@@]2(C)Oc3c(C)c(O)c4c(O)c(c5c(nc6cc(C)ccn65)c4c3C2=O)NC(=O)/C(C)=C\C=C\[C@H](C)[C@H](O)[C@@H](C)[C@@H](O)[C@@H](C)[C@H](OC(C)=O)[C@@H]1C [Rifaximin, rifaximin]
- % inhibition with 0.5 μg/ml Clr (M. abscessus strain M422 [2]; compound combined with clarithromycin): 100%
- % inhibition with compound alone (M. abscessus strain M422 [2]; without clarithromycin): 85.6%
- MIC90 ([3]; Mycobacteroides abscessus, ATCC19977, read-out: MIC90 Rfx individually): 128 µg/mL
- MIC90 Rfx in combination ([3]; in combination with Clr): 4 µg/mL
- MIC90 Rfx in combination [4]: 4 µg/mL
- MIC90 [4, 10]: 128 µg/mL
- MIC90 Rfx in combination [5]: 1 µg/mL
- MIC90 [5, 10]: 16 µg/mL
- MIC90 ([6]; alone, read-out: MIC90 Rfx individually): 0.03 µg/mL
- MIC90 ([6]; read-out: MIC90): < 0.1 µg/mL
- MIC90 Rfx in combination ([6]; in combination with Clr): 0.015 µg/mL
- concentration at which significant synergistic effects with clarithromycin are shown ([7]; Table 2): ≥ 1 µg/mL
- MIC of Rfx ([7]; tested alone): extremely high
- CFU reduction (M. abscessus ATCC 19977 [8]): did not show any CFU reduction

SMILES: CO[C@H]1/C=C/O[C@@]2(C)Oc3c(C)c(O)c4c(c3C2=O)C2=NC3(CCN(CC(C)C)CC3)NC2=C(NC(=O)/C(C)=C\C=C\[C@H](C)[C@H](O)[C@@H](C)[C@@H](O)[C@@H](C)[C@H](OC(C)=O)[C@@H]1C)C4=O [rifabutin]
- hit status in primary screening (M. abscessus strain M422 [9]): one of the top hits
- Percentage of bacterial growth ([3]; partner antibiotic 1 μg/ml): 105.5%
- Percentage of bacterial growth ([3]; partner antibiotic 2 μg/ml): 101.8%
- Percentage of bacterial growth ([3]; partner antibiotic 4 μg/ml): 99.4%
- Percentage of bacterial growth ([3]; partner antibiotic 8 μg/ml): 100.2%
- Percentage of bacterial growth ([3]; partner antibiotic 16 μg/ml): 79.1%
- Percentage of bacterial growth ([3]; partner antibiotic 32 μg/ml): 9.2%
- Percentage of bacterial growth ([3]; partner antibiotic 64 μg/ml): 1.2%
